Experimental data taken from article PMC5845353, “The selective cathepsin K inhibitor MIV-711 attenuates joint pathology in experimental animal models of osteoarthritis” (Journal of Translational Medicine, 2018).

Assays:
[1] = test system: rabbits subjected to anterior cruciate ligament transection (ACLT); experiment: Rabbit ACLT study, µCT osteophyte volume; format: in vivo; conditions: 30 and 100 µmol/kg, data not shown
Method: Starting 1 week after sham operation or ACLT, animals were dosed daily for 7 weeks by oral gavage with either MIV-711 (synthesized by Medivir and given as a suspension in 1% Methocel A4C in water) or vehicle (1% Methocel A4C in water) at a dose volume of 4 mL/kg. The four treatment groups (n = 7 in each group) were: (1) sham + vehicle; (2) ACLT + vehicle; (3) ACLT + MIV-711, 30 µmol/kg (low dose) and (4) ACLT + MIV-711, 100 µmol/kg (high dose).
Femora and tibias from all animals were subjected to µCT scanning without and with contrast reagent, to visualize bone and cartilage, respectively. Samples were scanned on a high-resolution, volumetric µCT scanner (μCT40, ScanCo Medical, Zurich, CH). The image data was acquired with the following parameters: 36 μm isotropic voxel resolution at 300 ms exposure time, 2000 views and 1 frame per view. Each sample was scanned twice, once for acquiring bone data and once for soft tissue data. […] After the segmentation process, the voxel count associated with each of the regions of interest was calculated using VHLab. […] Cartilage thickness was calculated using SCIRun (Scientific Computing and Imaging Institute, University of Utah). The distance from the bone to the outer surface of the articulating cartilage was calculated. […] Similarly, the thickness and thickness map image of the subchondral bone was calculated. […]

[2] = test system: dogs subjected to partial medial meniscectomy; experiment: Dog partial medial meniscectomy study, gross macroscopic scoring; format: in vivo; conditions: MIV-711 30 µmol/kg
Source text: The study design and animal usage were reviewed and approved by the IACUC at Preclinical Research Services (PCRS; Fort Collins, CO) for compliance with regulations before study initiation (IACUC Number 1021). Animal welfare, housing and research procedures for this study complied with the U.S. Department of Agriculture’s (USDA) Animal Welfare Act (9 CFR Parts 1, 2, and 3), the Guide for the Care and Use of Laboratory Animals, and PCRS Standard of Procedures. Thirty adult naïve female beagle dogs, with a weight of 7.5–11.3 kg and an age of approximately 6–8 months at study initiation, were used for this study. The dogs were acclimated for at least 7 days before study initiation.
At least 12 h before surgery, a fentanyl transdermal 2.5 mg patch was placed on the skin on the ventral aspect of the tail of each dog and secured into place with tape. The fentanyl patch delivered approximately 25 μg/h of analgesia for a total duration of 72–80 h. Dogs were also pre-medicated before surgery with glycopyrrolate (0.005–0.02 mg/kg), acepromazine (0.01–0.05 mg/kg) and morphine (0.5–1.0 mg/kg) injected subcutaneously. General anesthesia was induced using propofol (2–6 mg/kg) given intravenously; each dog was then intubated and maintained on isoflurane in oxygen (0.5–5%) administered to effect. The hair over the surgical site was clipped, and a preliminary aseptic prep of the area was done by alternating scrubs of chlorhexidine surgical scrub and sterile dry gauze sponges. A local anesthetic line block of lidocaine and bupivacaine (1.5 mg each) diluted in saline was administered at the incision site to provide local pre-emptive anesthesia. The limb was draped with a sterile fenestrated surgical drape. A small 2 cm medial parapatellar skin incision and a subsartorius capsular approach were made to expose the meniscus. For removal of the anterior one-half of the medial meniscus, the cranial meniscotibial ligament was incised, and the capsular attachments to the cranial pole of the meniscus were separated sharply with a scalpel under direct vision, sparing injury to the articular cartilage or the ACL. The medial meniscus was reflected medially with a hemostat. […] Animals were monitored closely throughout the recovery and post-operative period. […]
All animals were humanely euthanized on Day 29 to collect specimens for pathology. […] At study termination, the left (operated) knee was opened, disarticulated and the lesions on the medial tibia and femur measured, described and photographed. […] Lesions were classified as more severe or less severe depending on the intensity of India ink staining or perception of depth and areas for each calculated. Gross cartilage lesions were measured (length × width) and described as superficial, moderate, or deep. […]

C#C[C@@H]1CN(C(=O)[C@H](CC(C)C)NC(=O)c2ccc(-c3nc(N4CCN(C)CC4)sc3F)cc2)[C@@H]2C(=O)CO[C@H]12 [MIV-711]
effect on osteophyte volumes in femur and tibia (µCT) [1]: not apparently affected
Macroscopic score, Calculated ([2]; Femur condyle): 9.07 ± 4.78
Macroscopic score, Subjective ([2]; Femur condyle): 1.13 ± 0.32
Macroscopic score, Calculated ([2]; Tibia plateau): 23.88 ± 3.17
Macroscopic score, Subjective ([2]; Tibia plateau): 2.33 ± 0.21
